# Patent US9610359B2, “Methods and compositions related to annexin 1-binding compounds” (Burnham Institute for Medical Research, priority 2009, dated 2017)
# No end group written: not given here.
# Experiments:
# [1] = test system: Anxa1-expressing mouse endothelial F-2 cells; test: binding to the surface of F-2 cells cultured in vitro; format: cell-based
# Experimental: (§1) A. Binding of IF7C(RR)-conjugated FITC-polylysine on the surface of mouse endothelial F-2 cells cultured in vitro. B. Transport of […] FITC-poly-L-lysine through apical surface to basal space of F-2 cells monolayer. F-2 cells cultured on a filter of trans well insert was added with IF7C(RR)-conjugated FITC-poly-L-lysine to allow the reagent being bound to apical cell surface of F-2 cells. After washing the monolayer with medium, insert was placed in wells containing medium at 37° C. or at 4° C. Fluorescence moved to the lower chamber of insert was measured. C. Targeting and penetration of intravenously injected IF7C(RR)-conjugated FITC-poly-L-lysine in the B16 tumor in vivo in the mouse. Tissue section was immunostained for endothelial cell marker CD31.
# (§2) Thus IFLLWQR-C-RR (SEQ ID NO: 17) or IF7C(RR) was synthesized. […] The cytoplasmic and nuclear FITC signals are consistent with the localization of Anxa1 in the cytoplasm and nucleus (Gerke, 2005 #5299). […] (FIG. 12B). […] To determine if the binding and transport of IF7C(RR) occur in vivo in the tumor vasculature, IF7C(RR)-conjugated FITC-poly-L-lysine was injected intravenously into a B16 tumor-bearing mouse. […] Small molecules such as SN-38 conjugated with IF7C(RR) can penetrate to the tumor deeper and faster than the large molecule such as poly-L-lysine.
# [2] = test system: F-2 cells monolayer; test: transport through F-2 cell monolayer in trans well chamber; format: cell-based, mouse
# Experimental: as §1, §2
# [3] = test system: B16 tumor vasculature; test: targeting and penetration in B16 tumor vasculature after intravenous injection; format: in vivo; conditions: B16 tumor-bearing mouse
# Experimental: as §1, §2
# [4] = test system: Human prostate cancer PC3 tumors; test: orthotopic PC3 prostate cancer model in SCID mice; format: in vivo; conditions: 0.13 μmoles iv
# Experimental: (§3) FIGS. 6A and 6B show the effect of IF7-GA on melanoma, lung carcinoma, prostate cancer, and breast cancer mouse models. A, Effect of IF7-GA on tumor size. […] Mice were euthanised on day 15 to measure tumor weight. […] Mice were euthanised on day 13 and tumors weighed. (c) Human prostate cancer PC3 tumors were grown orthotopically in the prostate of SCID mice. On day 7, each mouse was injected intravenously with the compounds as in A-a, and injections administered every 4 days, for a total of four injections, until day 22. Mice were euthanised on day 28 and tumors weighed. (d) Human breast cancer MDA-MB-231 tumors were grown orthotopically in fat pads of SCID mice. On day 7, each mouse was injected intravenously with the compounds as in A-a, and injections performed every 4 days, for a total of four injections, until day 22. […] B, Histochemistry of tumors from the mice intravenously injected with the compounds described in A. Apoptotic tumor cells along blood vessels in transplanted tumors are detected by TUNEL assay. […]
# (§4) Mouse melanoma B16F1 cells (2×10^5 cells/100 μl serum-free DMEM) were injected subcutaneously into the dorsal flank of C57BL/6 female mice (8-10 weeks old). […] On day 15, mice were sacrificed and tumor weights determined. […] On day 13, mice were sacrificed and tumor weights determined. […] On day 28, mice were sacrificed and prostate tumor weights determined. […]
# [5] = test system: Human breast cancer MDA-MB-231 tumors; test: orthotopic MDA-MB-231 breast cancer model in SCID mice; format: in vivo; conditions: MDA-MB-231 breast tumor, 0.13 μmoles iv
# Experimental: as §3, §4
# [6] = molecular target: T1, Anxa1-His protein (Homo sapiens, UniProt P04083); test: surface plasmon resonance on Anxa1 coated chip; format: binding; conditions: qualitative
# T1 construct: Full-length cDNA encoding Anxa1 was obtained from Invitrogen (Carlsbad, Calif.) and subcloned into pET29a vector; His6 (C); made in house; host or cells: bacteria (pET29a vector, Novagen)
# T1 sequence (P04083 1-346): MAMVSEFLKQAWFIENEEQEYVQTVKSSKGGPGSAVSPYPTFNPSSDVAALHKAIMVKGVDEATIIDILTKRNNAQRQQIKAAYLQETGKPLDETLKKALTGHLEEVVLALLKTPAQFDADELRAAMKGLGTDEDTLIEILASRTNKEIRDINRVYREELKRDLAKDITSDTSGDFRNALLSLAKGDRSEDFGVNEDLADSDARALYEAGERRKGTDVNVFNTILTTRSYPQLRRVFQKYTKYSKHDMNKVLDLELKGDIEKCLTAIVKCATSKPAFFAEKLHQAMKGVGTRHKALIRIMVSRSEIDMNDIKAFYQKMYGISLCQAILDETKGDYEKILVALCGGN
# Experimental: IASys (Affinity Sensors, Cambridge, UK) was used. Anxa1-His protein was immobilized on the sensor chip by cross-linking to the aminosilane surface using bis[sulfosuccinimidyl] substrate (Pierce). Binding of IF7C dissolved in TBSC was recorded for 2 min, and dissociation of IF7C was initiated by adding TBSC to the sensor chip and the arc second was recorded for 5 min.
# [7] = test system: Mouse melanoma B16F1 tumors; format: in vivo; conditions: B16 melanoma, 0.13 μmoles iv
# Experimental: (a) Mouse melanoma B16F1 tumors were grown subcutaneously in C57BL6 mice. On day 10, each mouse was injected intravenously with either 100 μl of 5% glucose or that containing 0.13 μmoles of each IF7, GA, or IF7-GA. Injections were administered every other day, for a total of three injections, until day 14. […] B, Histochemistry of tumors from the mice intravenously injected with the compounds described in A. Apoptotic tumor cells along blood vessels in transplanted tumors are detected by TUNEL assay. B16 melanoma (a), LLC lung carcinoma (b), PC3 prostate tumor (c) and MDA-MB-231 breast tumor (d) from mice treated with each compound.
# Injections were administered every other day, for a total of 7 injections, until day 26, as shown by arrows.
# [8] = molecular target: T2, Anxa1-His6 protein (Homo sapiens, UniProt P04083); test: inhibition of binding of FITC-labeled polyacrylamide-LeA oligosaccharide to Anxa1-His6
# T2 construct: Full-length cDNA encoding Anxa1 was obtained from Invitrogen (Carlsbad, Calif.) and subcloned into pET29a vector; His6 (C); made in house; host or cells: bacteria (pET29a vector, Novagen)
# T2 sequence (P04083 1-346): T1 sequence (P04083 1-346)
# Description: (§5) FIGS. 1A-1H show the essential role of annexin 1 (Anxa1) in tumor growth and identification of a peptide sequence with tumor vasculature targeting activity in vivo. A and B. Growth of B16 tumors subcutaneously injected into Anxa1(+/−) and Anxa1(−/−) mutant mice. C. Histology of B16 tumors produced in Anxa1(+/−) and Anxa1(−/−) mice. Each scale bar represents 2.00 mm. D. Immunohistochemistry of B16 tumors for CD31 showing endothelial cells and vasculature. Each scale bar represents 200 μm. E. In vivo phage targeting in B16 tumor-bearing mice. Numbers of transformed colonies recovered from the tumor or lung were determined. […] F. In vivo tumor and organ targeting activity of IFLLWQR (SEQ ID NO:2) displaying phage. Phage was injected into B16 tumor bearing mice pre-injected with anti-Anxa1 antibody or with control rabbit IgG. G. In vitro plate assay for binding of IF7-A488 (upper line) and control RQ7-A488C (lower line) to recombinant […] protein produced by bacteria. H. Effect of IF7 (upper line) and control RQ7 (lower line) on binding of FITC-labeled polyacrylamide-LeA oligosaccharide to Anxa1-His6 protein.
# Full-length cDNA encoding Anxa1 was obtained from Invitrogen (Carlsbad, Calif.) and subcloned into pET29a vector (Novagen) to produce an […] fusion protein. […] After washing the plate, fluorescence was measured by a Molecular Devices Analyst HT plate reader. […]
# [9] = test system: B16 tumor; test: in vivo phage targeting in B16 tumor-bearing mice; parameters: species or system mouse
# Description: as §5
# Mouse melanoma B16F1 cells (2×10^5 cells/100 μl PBS) were injected subcutaneously into the dorsal flank of C57BL/6 female mice (8-10 weeks old). […] Colonies appearing on an agar plate after culturing at 37° C. for 20 hours were counted.
# [10] = molecular target: T1, Anxa1-His protein; test: isothermal titration calorimetry (ITC) with Anxa1-His protein; format: binding; conditions: qualitative
# Experimental: ITC was performed on a VP-ITC calorimeter from Microcal (Northampton, Mass.). In this analysis IF7K3C peptide or […] (SEQ ID NO:12), in which IF7 was modified by inserted with three lysine residues between IF7 and C to increase solubility in water. Eight μl aliquots of solution containing 1.0 or 1.5 mM were injected into the cell containing 100 or 150 μM Anxa1-His protein. In each experiment 37 injections were made. The experiments were performed at 23° C. in buffer containing 20 mM Tris pH 7.9, 250 mM NaCl, 1 mM CaCl2 and 10% dimethylsulfoxide. Experimental data were analyzed using Microcal Origin software provided by the ITC manufacturer (Microcal, Northampton, Mass.).
# [11] = test system: Mouse Lewis lung carcinoma (LLC) tumors; test: subcutaneous Lewis lung carcinoma tumor model; format: in vivo; conditions: 0.13 μmoles iv
# Experimental: as §3, §4
# [12] = test system: annexin 1 (Anxa1) fragment; conditions: cited from earlier work
# [13] = test system: normal lung; conditions: through pre-mRNA splicing factors; cited from earlier work
# [14] = test system: carbohydrate-dependent cancer cell colonization to the lung; conditions: synthetic peptide injected intravenously into mice; cited from earlier work
substance,measurement,setting,value
"IF7C(RR)-conjugated FITC-poly-L-lysine: IF7C(RR) conjugated to FITC-poly-L-lysine (IFLLWQRCRR; also: conjugated to FITC-poly-L-lysine, site not given here)",binding to the surface of F-2 cells,[1],bound to the surface of Anxa1-expressing mouse endothelial F-2 cells
same,transport of fluorescence to the lower chamber at 4° C.,[2]; 4° C.,not at 4 °C
same,transport of fluorescence to the lower chamber at 37° C.,[2]; 37° C.,fluorescence migrated to the lower chamber
same,localization of fluorescence in tumor tissue sections,[3],green fluorescence signals around the abluminal area of the vasculatures
IFLLWQR (annexin-1 binding compound) [IF7],apoptosis of perivascular tumor cells (TUNEL),[4],rarely show apoptosis
same,apoptosis of perivascular tumor cells (TUNEL),[5],rarely show apoptosis
same,binding to Anxa1 by surface plasmon resonance,[6],confirmed
same,"apoptosis of perivascular tumor cells (TUNEL, histochemistry)",[7],rarely show apoptosis
same,inhibition of fucosylated carbohydrate (LeA) binding to Anxa1,[8],inhibited by IF7
same,targeting to the lung in tumor-bearing mice,"[9]; mouse, in vivo",could not be detected
same,organ targeting of intravenously injected phage clone,"[9]; tumor versus lung, B16 tumor-bearing mice",targets tumor but not lung tissue
same,binding to Anxa1 by isothermal titration assay,[10],confirmed
same,apoptosis of perivascular tumor cells (TUNEL),[11],rarely show apoptosis
"IELLQAR [I-peptide, selectin ligand mimicry peptide]",binding to annexin 1 fragment,[12],bound to an annexin 1 (Anxa1) fragment
same,targeting to normal lung,[13],also targets to normal lung
same,cancer cell colonization to the lung,[14],inhibited carbohydrate-dependent cancer cell colonization to the lung
